# Tests used:
# Test in all cases: relative viability (nuclei count vs DMSO), 5 days (fraction); higher = more cells survive
# Ibrutinib + AZD7762 = compound: C=CC(=O)N1CCC[C@@H](n2nc(-c3ccc(Oc4ccccc4)cc3)c3c(N)ncnc32)C1 [Ibrutinib] + NC(=O)Nc1cc(-c2cccc(F)c2)sc1C(=O)N[C@H]1CCCNC1 [AZD7762] (partner 0.2 µM)
# How it was run: (§1)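 Cells from lung cancer lines were seeded into 1536-well plates and, one day later, dosed by pin tool. Treatments were either a single drug or a fixed dose of an anchor drug with five library-drug doses (not always all listed) in √10 steps. After 5 days, nuclei were stained in a one-step fixation (final 0.05% Triton X-100, 1% formaldehyde, 1 ug/ml Hoechst) and counted on 4× images, and relative viability is the treated-to-vehicle nuclei ratio, as the median of duplicate plates.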
# Ibrutinib + Pemetrexed = compound: C=CC(=O)N1CCC[C@@H](n2nc(-c3ccc(Oc4ccccc4)cc3)c3c(N)ncnc32)C1 [Ibrutinib] + Nc1nc2[nH]cc(CCc3ccc(C(=O)N[C@@H](CCC(=O)O)C(=O)O)cc3)c2c(=O)[nH]1 [Pemetrexed] (partner 0.2 µM)
# How it was run: as §1
# BMX-IN-1 + Linsitinib = compound: C=CC(=O)Nc1cc(-n2c(=O)ccc3cnc4ccc(-c5ccc(NS(C)(=O)=O)cc5)cc4c32)ccc1C [BMX-IN-1] + C[C@]1(O)C[C@@H](c2nc(-c3ccc4ccc(-c5ccccc5)nc4c3)c3c(N)nccn32)C1 [Linsitinib] (partner 1 µM)
# How it was run: as §1
# PAC-1 + Trametinib = compound: C=CCc1cccc(/C=N/NC(=O)CN2CCN(Cc3ccccc3)CC2)c1O [PAC-1] + CC(=O)Nc1cccc(-n2c(=O)n(C3CC3)c(=O)c3c(Nc4ccc(I)cc4F)n(C)c(=O)c(C)c32)c1 [Trametinib] (partner 0.02 µM)
# How it was run: as §1
Cell Line,relative viability (Ibrutinib + AZD7762; first compound 0.005 µM),relative viability (Ibrutinib + AZD7762; first compound 0.01581 µM),relative viability (Ibrutinib + AZD7762; first compound 0.05 µM),relative viability (Ibrutinib + AZD7762; first compound 0.1581 µM),relative viability (Ibrutinib + AZD7762; first compound 0.5 µM),relative viability (Ibrutinib + Pemetrexed; first compound 0.005 µM),relative viability (Ibrutinib + Pemetrexed; first compound 0.01581 µM),relative viability (Ibrutinib + Pemetrexed; first compound 0.05 µM),relative viability (Ibrutinib + Pemetrexed; first compound 0.1581 µM),relative viability (Ibrutinib + Pemetrexed; first compound 0.5 µM),relative viability (BMX-IN-1 + Linsitinib; first compound 0.02 µM),relative viability (BMX-IN-1 + Linsitinib; first compound 0.2 µM),relative viability (BMX-IN-1 + Linsitinib; first compound 0.6325 µM),relative viability (BMX-IN-1 + Linsitinib; first compound 2 µM),relative viability (PAC-1 + Trametinib; first compound 0.02 µM),relative viability (PAC-1 + Trametinib; first compound 0.06325 µM),relative viability (PAC-1 + Trametinib; first compound 0.2 µM),relative viability (PAC-1 + Trametinib; first compound 2 µM)
NCI-H1734,0.481,0.518,0.449,0.557,0.526,0.423,0.415,0.461,0.387,0.489,1.02,0.982,0.981,0.902,0.692,0.774,0.644,0.644
NCI-H1755,0.45,0.455,0.454,0.409,0.453,0.42,0.481,0.475,0.456,0.516,1.04,1.09,1.1,1,0.815,0.767,0.783,0.733
NCI-H1792,,0.693,0.6,0.636,0.515,,0.67,0.96,0.818,0.596,0.431,0.795,0.449,0.51,0.475,0.402,0.392,0.468
NCI-H1793,0.395,0.33,0.408,0.85,0.13,0.526,0.877,0.664,0.515,0.501,1.33,0.987,1.24,0.844,0.363,0.423,0.39,0.405
NCI-H1915,0.76,0.638,0.625,0.741,0.667,0.532,0.599,0.587,0.513,0.715,1.14,1.1,1.14,1.1,0.304,0.303,0.303,0.33
NCI-H1944,0.388,0.455,0.409,0.448,0.422,0.624,0.514,0.643,0.518,0.629,1.34,1.22,1.33,1.2,0.414,0.393,0.433,0.444
NCI-H1975,0.647,0.556,0.517,0.522,0.342,0.292,0.28,0.315,0.277,0.309,1.22,1.09,1.06,0.855,0.391,0.424,0.325,0.349
NCI-H1993,0.39,0.732,0.739,0.751,0.557,0.444,0.58,0.609,0.567,0.597,0.68,0.721,,0.636,0.446,0.534,0.623,0.583
NCI-H2085,0.906,0.926,0.919,0.926,0.729,0.878,0.828,0.759,0.621,0.671,0.915,0.934,1.04,0.97,0.452,0.521,0.458,0.629
NCI-H2087,1.77,1.19,1.04,,1.21,0.639,0.626,0.748,,0.694,1.14,1.11,1.34,1.1,0.184,0.227,0.236,0.244
NCI-H2126,0.776,0.966,0.962,0.986,0.958,0.509,0.653,0.717,0.671,0.69,0.74,0.659,0.747,0.678,0.548,0.535,0.563,0.55
NCI-H2347,0.739,0.733,0.69,0.665,0.696,0.454,0.4,0.434,0.462,0.463,1.1,1.02,1.04,0.958,0.309,0.285,0.297,0.269
NCI-H2405,0.778,0.65,,,0.829,1.01,0.97,,,1.06,1.01,0.875,0.975,0.921,0.684,0.688,0.667,0.73
NCI-H3122,1.16,0.946,1.03,0.885,0.992,0.214,0.203,0.219,0.191,0.301,1.04,1.08,1.01,1.02,0.213,0.253,0.205,0.189
PC-3 [JPC-3],0.631,0.588,0.478,,0.445,1.14,0.995,0.72,0.624,0.365,0.962,0.978,1.03,0.988,0.613,0.692,0.711,0.726
PC-14,0.379,0.349,0.314,0.224,0.23,0.157,0.138,0.133,0.121,0.201,1.04,1.05,1.01,0.973,0.815,0.704,0.781,0.793
RERF-LC-KJ,0.464,0.943,0.845,0.896,0.714,0.462,0.455,0.512,0.433,0.569,0.911,0.974,0.951,0.935,0.901,0.91,0.791,0.79

# From the supplement of paper PMC10307832
